This note sets out measurements from article PMC8546421, “Molecular modelling of the FOXO4-TP53 interaction to design senolytic peptides for the elimination of senescent cancer cells” (EBioMedicine, 2021).

The subject of one assay is dividing A375 cells. Nature of the assay: Peptide efficacy in culture (MTS), dividing cells. It counts as cell-based, human. Particulars: peptide replenished daily for two days, MTS, best fit polynomial, read-out: IC50^div, concentration to kill 50% of dividing cells. On the procedure: Cell lines were treated with chemotherapy, doxorubicin (Sigma, Cat. No. 2252) to induce senescence (200 nM for HCT116, 100 nM for B16-F10 and MCF7, 50 nM for SW480 and DLD-1, 40 nM for A375-Luc/iRFP and MCF10a). MCF7 cells were treated with CDK4/6 inhibitor, palbociclib (Selleck Chemicals: S1116) to induce senescence (5 µM). A375 cells were treated with Braf inhibitor, Dabrafenib (Selleck Chemicals: S2807), to induce senescence (10 µM). Peptide efficacy experiments were performed by seeding 10,000 – 20,000 cells in a 96-well plate. The cells were given doxorubicin twice to make the cells senescent. After removal of doxorubicin, the plate was treated with varying concentrations of peptide. The peptide was replenished daily for two days. Cellular proliferation was quantified using the Promega CellTiter 96™ AQueous One Solution Cell Proliferation Assay (MTS) after 2 hours according to the manufacturer's protocol (Promega, G3581). To control for the charge of ES2, ProteoJuice (Millipore Sigma, 71281) was used to deliver ES2 using the manufacturers protocol, except 50 µL of 2 mM ES2 was mixed with 25 µL of ProteoJuice. Varying concentrations of the mixture were administered to A375 cells along with a control of only ProteoJuice.

The target in the next assay is T1, TP53 (Homo sapiens, UniProt P04637).
T1 construct: purchased Millipore Sigma Aldrich 23-034
The assay can be described thus: Bio-layer Interferometry, TP53. It counts as binding. The note with it: BLI. On the procedure: Bio-layer Interferometry (BLI) measurements were performed on a ForteBio Octet RED384 instrument (Molecular Devices) using ForteBio Data Acquisition software 9.0 and ForteBio biosensors (Molecular Devices) according to the manufacturer's instructions. Kinetic assays were carried out at 30°C using settings of Standard Kinetics Acquisition rate (5.0 Hz, averaging by 20) at a sample plate shake speed of 1,000 rpm. Streptavidin sensors (SA) (ForteBio) equilibrated in PBS were mock loaded (no ligand reference sensor) or loaded with 50 nM of N- terminal biotinylated ES2 peptide (New England Peptide, Inc.) with an approximate response of 1 nm. Ligand loaded SA sensors equilibrated in Kinetics buffer (ForteBio) to establish a baseline, were dipped into wells containing 2-fold dilutions of TP53 (Millipore Sigma Aldrich; Cat# 23-034), FOXO4 (OriGene Technologies; Cat# TP760655) or GFP analytes in kinetics buffer, or buffer alone (reference sample). Increasing concentrations of analytes ranging from 6.2 - 200 nM were allowed to associate for 240 secs, followed by 600 sec dissociation step where the TP53/FOXO4-bound sensors were washed with kinetics buffer. Binding curves were analysed using ForteBio Data Analysis HT 10.0 evaluation software. To control for background signal and non-specific binding, raw experimental data were processed by subtracting reference biosensor and reference sample (no ligand). Processed data from at least six different concentrations of analyte binding were globally fit to a 1:1 Langmuir binding model to calculate the association rate constant ka, the dissociation rate constant kd to achieve R^2 > 0.90. Equilibrium dissociation constants KD which defines the strength of the interaction or affinity was calculated as the kinetic dissociation rate constant divided by the kinetic association rate constant.
A general note: Biolayer interferometry detects binding as a change in optical thickness at a sensor tip.

Read-outs that look alike come from different tables or passages of the source. Where no end group is shown, it is not given here.

T1 sequence (P04637 whole entry): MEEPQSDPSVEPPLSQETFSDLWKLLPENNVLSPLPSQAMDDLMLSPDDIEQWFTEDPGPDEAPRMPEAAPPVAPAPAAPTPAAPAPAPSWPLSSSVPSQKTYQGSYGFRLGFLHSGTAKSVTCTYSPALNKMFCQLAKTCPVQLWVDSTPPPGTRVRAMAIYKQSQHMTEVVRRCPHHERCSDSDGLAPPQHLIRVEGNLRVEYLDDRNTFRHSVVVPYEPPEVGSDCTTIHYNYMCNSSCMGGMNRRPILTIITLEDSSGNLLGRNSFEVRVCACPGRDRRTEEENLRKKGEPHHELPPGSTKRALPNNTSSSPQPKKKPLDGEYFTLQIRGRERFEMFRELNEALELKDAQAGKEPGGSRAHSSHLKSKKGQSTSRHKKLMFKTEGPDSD

With “PRKGGRRRRAWGRRRRRRRRRRRRRRAPRKRLTLA [ES2]”, the IC50 in the assay with dividing A375 cells was around 17 µM. Also, the kon on TP53 (1:1 Langmuir binding model, read-out: association rate ka) was 38000 M⁻¹ s⁻¹; on TP53 (biotinylated ES2 immobilized on streptavidin sensors, analyte 6.25-200 nM, 30°C, global 1:1 Langmuir fit, read-out: ka), 38000 M⁻¹ s⁻¹. The same sequence yielded a kd at TP53 (biotinylated ES2 immobilized on streptavidin sensors, analyte 6.25-200 nM, 30°C, global 1:1 Langmuir fit) of 8.7e-05 ± 6.3e-07 s⁻¹. The sequence further displayed a dissociation constant (Kd) at TP53 (biotinylated ES2 immobilized on streptavidin sensors, analyte 6.25-200 nM, 30°C, kd/ka) of 0.0023 ± 2e-05 µM.

For orientation: Kd means the concentration at which binding is half-saturated. Read a high Kd as a looser complex.
